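Interpolation was linear, between the two tested concentrations surrounding the appropriate level; five concentrations were tested over 48 hours in 96-well plates. GI50: concentration for 50% inhibition of growth. At the TGI there is no net growth.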
Legend:
Assay in all cases: NCI anticancer screen, dose series, 48 h
HCT-116 colon = system: HCT-116 colon
HCT-15 colon = system: HCT-15 colon
HT29 colon = system: HT29 colon
OVCAR-5 ovarian = system: OVCAR-5 ovarian
NCI-H23 lung = system: NCI-H23 lung
SN12C renal = system: SN12C renal
HCC-2998 colon = system: HCC-2998 colon
A498 renal = system: A498 renal

O=c1c2[nH]cnc2n(-c2ccccc2)c(=S)n1-c1ccccc1
TGI (HCT-116 colon): > 100 µM
TGI (HCT-15 colon): > 100 µM
TGI (HT29 colon): > 100 µM
TGI (OVCAR-5 ovarian): > 100 µM
TGI (NCI-H23 lung): > 100 µM
TGI (SN12C renal): > 100 µM
TGI (HCC-2998 colon): > 100 µM
TGI (A498 renal): > 100 µM

Cc1ccc(S(=O)(=O)OCCN(CCOS(=O)(=O)c2ccc(C)cc2)c2ccc(C=O)cc2)cc1
TGI (HCT-116 colon): > 100 µM
TGI (HCT-15 colon): > 100 µM
TGI (HT29 colon): > 100 µM
TGI (OVCAR-5 ovarian): 64.8 µM
TGI (NCI-H23 lung): > 100 µM
TGI (HCC-2998 colon): 85.5 µM
TGI (A498 renal): 61 µM

O=C(/C=C\c1ccccc1)Oc1ccc(/C=C2\CCC/C(=C\c3ccc(OC(=O)/C=C\c4ccccc4)cc3)C2=O)cc1
TGI (HCT-116 colon): > 100 µM
TGI (HCT-15 colon): > 100 µM
TGI (HT29 colon): > 100 µM
TGI (OVCAR-5 ovarian): > 100 µM
TGI (NCI-H23 lung): > 100 µM
TGI (SN12C renal): > 100 µM
TGI (HCC-2998 colon): > 100 µM

COc1cc(C2c3cc4c(cc3[C@@H](Nc3ccc(F)cc3)C3COC[C@H]23)OCO4)cc(OC)c1O (stereo partly drawn)
TGI (HCT-116 colon): 7.9 µM
TGI (HCT-15 colon): 18.9 µM
TGI (HT29 colon): 8.82 µM
TGI (OVCAR-5 ovarian): 14.1 µM
TGI (SN12C renal): 23.1 µM
TGI (HCC-2998 colon): > 25 µM

Cc1cccc2c1nc1n2C(=O)c2ccccc2-1
TGI (HCT-116 colon): > 100 µM
TGI (HCT-15 colon): > 100 µM
TGI (HT29 colon): > 100 µM
TGI (OVCAR-5 ovarian): > 100 µM
TGI (NCI-H23 lung): > 100 µM
TGI (SN12C renal): > 100 µM
TGI (HCC-2998 colon): > 100 µM

COC(=O)c1c(O)ccc2c1c1c(n2Cc2ccc(OC)cc2)C(=O)c2ccccc2C1
TGI (HCT-116 colon): > 100 µM
TGI (HCT-15 colon): > 100 µM
TGI (HT29 colon): 47.4 µM
TGI (NCI-H23 lung): > 100 µM
TGI (SN12C renal): 93.3 µM
TGI (A498 renal): > 100 µM

O=C(O)CCCc1ccc2c(c1)C(C(=O)O)CC2 (stereo not drawn)
TGI (HCT-116 colon): > 100 µM
TGI (HCT-15 colon): > 100 µM
TGI (HT29 colon): > 100 µM
TGI (OVCAR-5 ovarian): > 100 µM
TGI (NCI-H23 lung): > 100 µM
TGI (SN12C renal): > 100 µM
TGI (HCC-2998 colon): > 100 µM

COc1ccc(C(=CCC(C)C2CCC3[C@@H]4C(OC(C)=O)CC5CC(OC(C)=O)CC[C@]5(C)C4CC(OC(C)=O)[C@]23C)c2ccc(OC)cc2)cc1 (stereo partly drawn)
TGI (HCT-116 colon): > 100 µM
TGI (HCT-15 colon): > 100 µM
TGI (HT29 colon): > 100 µM
TGI (OVCAR-5 ovarian): > 100 µM
TGI (SN12C renal): > 100 µM
TGI (HCC-2998 colon): > 100 µM

Cc1ccc(S(=O)(=O)NC(=O)Nc2ccc(C(=O)O)cc2)cc1
TGI (HCT-116 colon): > 100 µM
TGI (HCT-15 colon): > 100 µM
TGI (HT29 colon): > 100 µM
TGI (OVCAR-5 ovarian): > 100 µM
TGI (NCI-H23 lung): > 100 µM
TGI (SN12C renal): > 100 µM

CC(=O)O[C@H]1CC[C@@H](OC(C)=O)[C@H]2[C@H](O)[C@H](O)[C@@H]1n1c(=O)n(-c3ccccc3)c(=O)n12
TGI (HCT-116 colon): > 100 µM
TGI (HCT-15 colon): > 100 µM
TGI (HT29 colon): > 100 µM
TGI (OVCAR-5 ovarian): > 100 µM
TGI (NCI-H23 lung): > 100 µM
TGI (SN12C renal): > 100 µM
TGI (A498 renal): > 100 µM

O=[N+]([O-])/C=C/c1cc(Cl)c(/C=C/[N+](=O)[O-])cc1Cl
TGI (HCT-116 colon): 7.1 µM
TGI (HCT-15 colon): 4.19 µM
TGI (HT29 colon): 5.78 µM
TGI (NCI-H23 lung): 22.5 µM
TGI (HCC-2998 colon): 3.99 µM
TGI (A498 renal): 14.2 µM

O=C(OCCN=c1c2ccccc2ccc2ccccc12)c1cc([N+](=O)[O-])cc([N+](=O)[O-])c1
TGI (HCT-116 colon): > 100 µM
TGI (HCT-15 colon): > 100 µM
TGI (HT29 colon): > 100 µM
TGI (OVCAR-5 ovarian): > 100 µM
TGI (NCI-H23 lung): > 100 µM
TGI (SN12C renal): > 100 µM

Cc1cc2nc(N3C(=O)/C(=C/Cc4ccco4)N=C3c3ccccc3)sc2cc1C
TGI (HCT-116 colon): 54 µM
TGI (HCT-15 colon): > 100 µM
TGI (HT29 colon): 76.5 µM
TGI (OVCAR-5 ovarian): > 100 µM
TGI (SN12C renal): 87.9 µM
TGI (HCC-2998 colon): 55.7 µM

CC(=O)C1(C(=O)C(=[N+]=[N-])S(=O)(=O)c2ccccc2)CC1
TGI (HCT-116 colon): > 100 µM
TGI (HCT-15 colon): > 100 µM
TGI (HT29 colon): > 100 µM
TGI (OVCAR-5 ovarian): > 100 µM
TGI (NCI-H23 lung): > 100 µM
TGI (SN12C renal): > 100 µM
TGI (HCC-2998 colon): > 100 µM

O=c1[nH]ncc2[nH]c3c(c12)CCc1ccccc1-3
TGI (HCT-116 colon): > 100 µM
TGI (HCT-15 colon): > 100 µM
TGI (HT29 colon): > 100 µM
TGI (OVCAR-5 ovarian): > 100 µM
TGI (NCI-H23 lung): > 100 µM
TGI (SN12C renal): > 100 µM
TGI (A498 renal): 61.8 µM

O=S(Nc1ccccc1)c1ccc(Cl)cc1 (stereo not drawn)
TGI (HCT-116 colon): > 100 µM
TGI (HCT-15 colon): > 100 µM
TGI (HT29 colon): > 100 µM
TGI (OVCAR-5 ovarian): > 100 µM
TGI (NCI-H23 lung): > 100 µM
TGI (SN12C renal): > 100 µM
TGI (HCC-2998 colon): > 100 µM

COc1ccc2oc(=O)c(-c3cc4c(c(C)n3)c(=O)oc3ccc(OC)cc34)cc2c1
TGI (HCT-116 colon): > 100 µM
TGI (HCT-15 colon): > 100 µM
TGI (HT29 colon): > 100 µM
TGI (NCI-H23 lung): > 100 µM
TGI (SN12C renal): > 100 µM
TGI (HCC-2998 colon): > 100 µM

Cn1c(CO)ccc1-c1ccc(-c2ccc(CO)[se]2)[se]1
TGI (HCT-116 colon): 60 µM
TGI (HCT-15 colon): > 70.6 µM
TGI (HT29 colon): > 100 µM
TGI (NCI-H23 lung): > 74.8 µM
TGI (SN12C renal): > 100 µM
TGI (HCC-2998 colon): 22.5 µM
TGI (A498 renal): 0.0684 µM

Cc1nc(C(=Nc2ccc(Br)cc2)Nn2cnnc2)no1
TGI (HCT-116 colon): > 100 µM
TGI (HCT-15 colon): > 100 µM
TGI (HT29 colon): > 100 µM
TGI (OVCAR-5 ovarian): > 100 µM
TGI (NCI-H23 lung): > 100 µM
TGI (HCC-2998 colon): > 100 µM
TGI (A498 renal): > 100 µM

Cn1c2c(c3c(=O)[nH]ncc31)Cc1ccccc1-2
TGI (HCT-116 colon): 60.8 µM
TGI (HCT-15 colon): > 100 µM
TGI (HT29 colon): > 100 µM
TGI (OVCAR-5 ovarian): > 100 µM
TGI (NCI-H23 lung): > 100 µM
TGI (SN12C renal): 47.9 µM
TGI (A498 renal): 27.5 µM

NCCCNc1nc2ccccc2c2c(=O)c3cc(Cl)ccc3sc12
GI50 (HT29 colon): 1.72 µM
TGI (HT29 colon): 3.18 µM
GI50 (OVCAR-5 ovarian): 1.67 µM
TGI (OVCAR-5 ovarian): 3.14 µM
GI50 (SN12C renal): 1.63 µM
TGI (SN12C renal): 3.07 µM
GI50 (A498 renal): 3.22 µM
TGI (A498 renal): 12.1 µM

CC(C)(NO)/C(=N\O)c1ccccc1
TGI (HCT-116 colon): > 10 µM
TGI (HCT-15 colon): > 10 µM
TGI (HT29 colon): > 10 µM
TGI (OVCAR-5 ovarian): > 10 µM
TGI (NCI-H23 lung): > 10 µM
TGI (SN12C renal): > 10 µM
TGI (HCC-2998 colon): > 10 µM
